{
  "source": "ChEMBL document CHEMBL1743201",
  "about": "“Casarett and Doull's Toxicology The Basic Science of Poisons, 7th edition” (2008)",
  "type_in_all_cases": "ADME",
  "key": {"[1]": {"molecular_target": "Leukotriene C4 synthase (Homo sapiens, UniProt Q16873)", "sequence (Q16873 whole entry)": "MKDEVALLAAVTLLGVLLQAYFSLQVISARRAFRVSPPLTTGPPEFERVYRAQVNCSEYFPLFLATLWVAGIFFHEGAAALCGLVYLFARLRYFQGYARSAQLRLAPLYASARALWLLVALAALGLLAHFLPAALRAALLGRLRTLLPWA", "assay": "Substrates for human microsomal glutathione transferase LTC4S"}, "[2]": {"molecular_target": "Microsomal glutathione S-transferase 2 (Homo sapiens, UniProt Q99735)", "sequence (Q99735 whole entry)": "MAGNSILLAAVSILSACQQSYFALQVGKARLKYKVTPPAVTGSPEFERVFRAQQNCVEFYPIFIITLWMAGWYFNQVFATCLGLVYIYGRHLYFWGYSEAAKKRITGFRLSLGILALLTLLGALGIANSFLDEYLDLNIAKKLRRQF", "assay": "Substrates for human microsomal glutathione transferase MGST2"}, "[3]": {"molecular_target": "Glutathione S-transferase 3, mitochondrial (Homo sapiens, UniProt O14880)", "sequence (O14880 whole entry)": "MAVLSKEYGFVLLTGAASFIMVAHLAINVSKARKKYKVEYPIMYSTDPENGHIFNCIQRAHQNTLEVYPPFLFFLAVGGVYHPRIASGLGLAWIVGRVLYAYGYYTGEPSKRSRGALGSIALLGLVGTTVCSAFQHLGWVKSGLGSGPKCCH", "assay": "Substrates for human microsomal glutathione transferase MGST3"}, "[4]": {"molecular_target": "Prostaglandin E synthase (Homo sapiens, UniProt O14684)", "sequence (O14684 whole entry)": "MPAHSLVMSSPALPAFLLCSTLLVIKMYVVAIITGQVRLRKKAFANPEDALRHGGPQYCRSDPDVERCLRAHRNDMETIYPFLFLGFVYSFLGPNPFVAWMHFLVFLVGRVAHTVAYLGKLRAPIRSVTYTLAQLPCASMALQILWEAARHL", "assay": "Substrates for human microsomal glutathione transferase PTGEs"}, "[5]": {"molecular_target": "Hematopoietic prostaglandin D synthase (Homo sapiens, UniProt O60760)", "sequence (O60760 whole entry)": "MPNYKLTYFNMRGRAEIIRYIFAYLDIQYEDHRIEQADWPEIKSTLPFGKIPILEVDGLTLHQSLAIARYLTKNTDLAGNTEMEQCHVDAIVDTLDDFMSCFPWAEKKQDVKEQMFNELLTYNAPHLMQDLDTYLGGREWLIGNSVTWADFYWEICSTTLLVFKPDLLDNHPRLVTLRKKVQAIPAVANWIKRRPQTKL", "assay": "Substrates for human cytosolic glutathione transferase PGDS"}, "[6]": {"molecular_target": "T1, Glutathione S-transferase Mu 2 (Homo sapiens, UniProt P28161)", "T1 sequence (P28161 whole entry)": "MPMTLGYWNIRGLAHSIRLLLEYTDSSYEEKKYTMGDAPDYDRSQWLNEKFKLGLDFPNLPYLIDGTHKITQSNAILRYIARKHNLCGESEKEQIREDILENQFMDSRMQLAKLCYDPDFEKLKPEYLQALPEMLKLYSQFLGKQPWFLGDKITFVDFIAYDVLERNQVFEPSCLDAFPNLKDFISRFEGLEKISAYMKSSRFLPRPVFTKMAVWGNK", "assay": "Substrates for human cytosolic glutathione transferase GSTM2"}, "[7]": {"molecular_target": "Glutathione S-transferase Mu 3 (Homo sapiens, UniProt P21266)", "sequence (P21266 whole entry)": "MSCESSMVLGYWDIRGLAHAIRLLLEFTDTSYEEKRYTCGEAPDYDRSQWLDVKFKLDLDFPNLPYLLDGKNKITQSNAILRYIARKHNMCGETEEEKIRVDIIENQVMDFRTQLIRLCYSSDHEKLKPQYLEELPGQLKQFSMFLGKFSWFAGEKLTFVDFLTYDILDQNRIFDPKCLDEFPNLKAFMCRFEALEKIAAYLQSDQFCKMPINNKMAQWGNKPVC", "assay": "Substrates for human cytosolic glutathione transferase GSTM3"}, "[8]": {"molecular_target": "T2, Cytochrome P450 2B6 (Homo sapiens, UniProt P20813)", "T2 sequence (P20813 whole entry)": "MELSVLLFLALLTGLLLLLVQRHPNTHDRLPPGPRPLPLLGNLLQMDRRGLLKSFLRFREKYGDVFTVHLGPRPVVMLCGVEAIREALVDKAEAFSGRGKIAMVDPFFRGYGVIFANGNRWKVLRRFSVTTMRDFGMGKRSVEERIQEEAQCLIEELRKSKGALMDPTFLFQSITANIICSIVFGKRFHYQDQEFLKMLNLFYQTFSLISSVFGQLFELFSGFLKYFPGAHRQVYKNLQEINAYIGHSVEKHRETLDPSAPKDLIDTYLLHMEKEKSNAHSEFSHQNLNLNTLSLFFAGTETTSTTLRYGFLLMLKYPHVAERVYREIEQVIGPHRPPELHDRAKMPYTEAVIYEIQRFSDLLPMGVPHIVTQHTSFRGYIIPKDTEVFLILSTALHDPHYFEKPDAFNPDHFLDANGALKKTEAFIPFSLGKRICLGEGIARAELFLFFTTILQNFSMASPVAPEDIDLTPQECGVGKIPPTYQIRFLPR", "assay": "Clinically relevant inducers of human liver microsomal P450 enzymes, isoform CYP2B6", "details": "microsomes"}, "[9]": {"molecular_target": "Cytochrome P450 2C9 (Homo sapiens, UniProt P11712)", "sequence (P11712 whole entry, canonical isoform)": "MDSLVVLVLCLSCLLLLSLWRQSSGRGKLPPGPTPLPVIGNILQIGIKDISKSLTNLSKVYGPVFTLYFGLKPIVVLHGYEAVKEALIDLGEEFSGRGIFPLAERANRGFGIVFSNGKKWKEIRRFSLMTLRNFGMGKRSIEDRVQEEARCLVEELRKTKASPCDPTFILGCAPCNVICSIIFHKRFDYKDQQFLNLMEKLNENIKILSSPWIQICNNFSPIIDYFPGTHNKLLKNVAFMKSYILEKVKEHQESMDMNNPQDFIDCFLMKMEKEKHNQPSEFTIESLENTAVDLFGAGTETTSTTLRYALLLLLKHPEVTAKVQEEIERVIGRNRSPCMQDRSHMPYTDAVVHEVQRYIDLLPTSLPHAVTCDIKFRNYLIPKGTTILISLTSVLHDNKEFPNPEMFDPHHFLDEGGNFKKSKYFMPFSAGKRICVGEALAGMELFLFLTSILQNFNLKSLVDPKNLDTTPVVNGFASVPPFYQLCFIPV", "assay": "Clinically relevant inducers of human liver microsomal P450 enzymes, isoform CYP2C9", "details": "microsomes"}, "[10]": {"molecular_target": "T3, Nuclear receptor subfamily 1 group I member 3 (Mus musculus, UniProt O35627)", "T3 sequence (O35627 whole entry)": "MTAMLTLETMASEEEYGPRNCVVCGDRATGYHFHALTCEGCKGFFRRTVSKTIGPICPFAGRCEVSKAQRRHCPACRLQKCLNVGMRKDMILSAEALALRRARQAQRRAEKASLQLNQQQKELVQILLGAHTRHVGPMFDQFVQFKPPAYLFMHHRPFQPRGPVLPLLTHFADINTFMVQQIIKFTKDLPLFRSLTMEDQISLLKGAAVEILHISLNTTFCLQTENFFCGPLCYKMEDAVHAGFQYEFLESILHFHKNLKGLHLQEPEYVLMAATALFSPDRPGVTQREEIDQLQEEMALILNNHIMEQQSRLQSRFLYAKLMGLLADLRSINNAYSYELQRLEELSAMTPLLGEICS", "assay": "(§1) Constitutive androstane receptor indirect activator"}, "[11]": {"molecular_target": "T4, Nuclear receptor subfamily 1 group I member 3 (Homo sapiens, UniProt Q14994)", "T4 sequence (Q14994 whole entry)": "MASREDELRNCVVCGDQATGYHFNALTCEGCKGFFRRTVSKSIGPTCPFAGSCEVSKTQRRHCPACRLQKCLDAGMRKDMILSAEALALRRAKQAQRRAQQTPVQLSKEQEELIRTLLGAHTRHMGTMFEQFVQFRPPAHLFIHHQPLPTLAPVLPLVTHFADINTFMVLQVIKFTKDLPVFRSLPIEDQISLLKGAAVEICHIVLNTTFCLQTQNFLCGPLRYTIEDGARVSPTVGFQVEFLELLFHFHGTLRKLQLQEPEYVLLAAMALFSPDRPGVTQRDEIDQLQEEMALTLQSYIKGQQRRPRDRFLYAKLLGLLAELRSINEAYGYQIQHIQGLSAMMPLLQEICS", "assay": "as §1"}, "[12]": {"molecular_target": "T5, Cytochrome P450 2C8 (Homo sapiens, UniProt P10632)", "T5 sequence (P10632 whole entry)": "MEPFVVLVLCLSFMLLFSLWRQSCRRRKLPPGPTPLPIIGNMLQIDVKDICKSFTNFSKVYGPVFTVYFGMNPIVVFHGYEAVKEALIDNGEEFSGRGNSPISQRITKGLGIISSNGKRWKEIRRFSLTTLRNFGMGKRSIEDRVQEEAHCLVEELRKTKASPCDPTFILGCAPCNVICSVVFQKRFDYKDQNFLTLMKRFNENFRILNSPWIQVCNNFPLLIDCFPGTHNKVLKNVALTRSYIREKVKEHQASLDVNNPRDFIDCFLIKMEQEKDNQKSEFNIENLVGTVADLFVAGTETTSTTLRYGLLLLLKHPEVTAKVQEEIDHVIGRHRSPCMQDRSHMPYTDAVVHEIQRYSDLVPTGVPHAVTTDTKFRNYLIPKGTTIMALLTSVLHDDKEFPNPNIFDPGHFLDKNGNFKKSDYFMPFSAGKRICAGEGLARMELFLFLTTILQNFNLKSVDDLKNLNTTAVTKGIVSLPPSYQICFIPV", "assay": "Clinically relevant inducers of human liver microsomal P450 enzymes, isoform CYP2C8", "details": "microsomes"}, "[13]": {"molecular_target": "Cytochrome P450 2C19 (Homo sapiens, UniProt P33261)", "sequence (P33261 whole entry, canonical isoform)": "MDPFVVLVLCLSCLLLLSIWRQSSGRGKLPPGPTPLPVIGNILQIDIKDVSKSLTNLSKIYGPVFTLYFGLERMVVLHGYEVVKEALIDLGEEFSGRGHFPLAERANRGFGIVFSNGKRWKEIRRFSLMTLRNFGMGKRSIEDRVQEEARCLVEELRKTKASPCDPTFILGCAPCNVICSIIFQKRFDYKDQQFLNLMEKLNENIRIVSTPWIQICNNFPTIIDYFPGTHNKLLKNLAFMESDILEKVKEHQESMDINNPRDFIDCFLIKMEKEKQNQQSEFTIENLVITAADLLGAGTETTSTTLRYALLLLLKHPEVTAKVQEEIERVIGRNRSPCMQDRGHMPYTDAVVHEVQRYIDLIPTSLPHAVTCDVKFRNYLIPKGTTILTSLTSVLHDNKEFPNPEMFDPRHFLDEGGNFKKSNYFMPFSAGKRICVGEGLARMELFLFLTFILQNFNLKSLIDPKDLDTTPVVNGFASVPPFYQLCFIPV", "assay": "Clinically relevant inducers of human liver microsomal P450 enzymes, isoform CYP2C19", "details": "microsomes"}},
  "data": [
    {"smiles": "CCCCC/C=C\\C\\C=C/C=C/C=C/[C@@H]1O[C@H]1CCCC(=O)O", "note": "[LEUKOTRIENE A4]", "values": [
      {"measurement": "Activity", "setting": "[1]", "result": "Substrate"},
      {"measurement": "Activity", "setting": "[2]", "result": "Substrate"},
      {"measurement": "Activity", "setting": "[3]", "result": "Substrate"}
    ]},
    {"smiles": "CCCCC[C@H](O)/C=C/[C@H]1C2CC(OO2)[C@@H]1C/C=C\\CCCC(=O)O", "note": "(stereo partly drawn)", "values": [
      {"measurement": "Activity", "setting": "[4]", "result": "Substrate"},
      {"measurement": "Activity", "setting": "[5]", "result": "Substrate"},
      {"measurement": "Activity", "setting": "[6]", "result": "Substrate"},
      {"measurement": "Activity", "setting": "[7]", "result": "Substrate"}
    ]},
    {"smiles": "CCC1(c2ccccc2)C(=O)NC(=O)NC1=O", "note": "[PHENOBARBITAL]", "values": [
      {"measurement": "Activity", "setting": "[8]", "result": "Inducer"},
      {"measurement": "Activity", "setting": "[9]", "result": "Inducer"},
      {"measurement": "Activity", "setting": "[10]", "result": "indirect activator"},
      {"measurement": "Activity", "setting": "[11]", "result": "indirect activator"},
      {"measurement": "Activity", "setting": "[12]", "result": "Inducer"},
      {"measurement": "Activity", "setting": "[13]", "result": "Inducer"}
    ]}
  ]
}
